Assays:
MMP1 = MMP1 immunofluorescence on human skin explants after repeated UVA irradiation; format: cell-based; conditions: skin explant, (Ia) 100 ppm
Procedure: In these examples, the protective properties of the compound (Ia) against the damage caused to the DNA and to the extracellular matrix by repeated UVA irradiation, are measured on explants of human skin (NATIVESKIN, Genoskin).
Upon reception of the explants, the latter are topically coated with Carbopol® (Lubrizol)+DMSO for the non-UVA control (CTL without stress) and for the control with stress by UVAs (CTL UVA), and with Carbopol®+compound (Ia) at 100 ppm for the test.
Over three days, the cells are subjected to three stresses with UVAs at a rate of 50 joules per square centimetre.
The first irradiation takes place 24 hours after the treatments. The products are present before, during and after the irradiation. The control without stress is wrapped in aluminium and also placed in the irradiator.
During the irradiation, the explants inserted are disposed in a petri dish with PBS. Fresh medium (Genoskin Culture medium) is added after the irradiation.
After the third day of irradiation, the explants are cultivated for 24 hours, then collected and fixed for 48 hours in formalin (Sigma). The samples are included in paraffin and cut.
A marking of the protein MMP1 by immunofluorescence on a paraffin section is carried out.
The samples are prepared for the fluorescent marking. […]
The sections are mounted on a slide and the fluorescence is quantified using a microscope (Leica DM5000B).

[1] = tested on: NativeSkin® skin explants (Genoskin); experiment: Breaks in the DNA (γ-H2AX marking) of NativeSkin skin explant ex vivo after UVA irradiation; format: cell-based, human; conditions: composition 0.9 mmol/L topical, 60 J/cm^2 UVA every day for 3 days, n=10 images, FIG. 7
Procedure: The test was carried out on NativeSkin® skin explants (Genoskin), a biopsy of skin bathed in a solid, nourishing matrix while its epidermal surface is preserved in contact with the air. The biopsy is firmly anchored in the matrix and sealed in order to prevent any lateral diffusion of formulation intended for topical application.
The study was carried out on a donor (phototype 2) under the following conditions.
The compounds tested are implemented in a composition containing them at 0.9 mmol/L in a mixture of Carbopol® (0.5% p/p), DMSO (0.1% p/p) and H2O (qsp 100%).
The samples are irradiated at 60 J/cm^2 UVA every day for 3 days. A treatment is carried out for 24 h before the irradiation, by application of the composition tested onto the sample (deposition of 40 μl of composition onto the stratum corneum), then a post-treatment of 24 h after the irradiation, in the same manner.
A Control of the sample of skin non-irradiated and a Control of the sample of skin irradiated are also carried out, both with application of the vehicle alone (0.5% Carbopol®, 0.1% DMSO, H2O). The Control of the non-irradiated sample of skin is introduced into the irradiator in a sheet of aluminium, in such a way as to protect it against UVs.
The samples are sampled, cut (according to the conventional method of cryo-sectioning implementing paraffin and freezing) and fixed in 1 ml of formalin for 24 h.
The explants are then included in paraffin and sections of 5 μm are made.
The slides obtained are also marked by immunohistochemistry with the biomarker γ-H2Ax.
The analysis of the marking is carried out with a DM5000B fluorescence microscope (Leica Microsystems) and 10 images are acquired for each sample.
For the marking with γ-H2Ax, for each image, the total number of nuclei is detected with 4′,6-diamidino-2-phenylindole (dapi). In the same image, the number of nuclei having the marking is quantified. The ratio of the number of positive nuclei, multiplied by 100, to the number of total nuclei, is calculated, in order to obtain a percentage (=(positive nuclei*100)/total nuclei), n=10 per sample.
A statistical analysis is carried out with a student's test by comparing the samples to the control (p value[…], p value<0.05**, p value<0.005***, ns not significant).

MMP-9 = experiment: Gene expression of MMP-9 by quantitative RT-PCR in NHEK; format: cell-based, human; conditions: (Ia) 3 ppm (10^−5M), 24 hours
Procedure: (§1) In these examples, the expression of the messenger RNA is measured by the technique of quantitative RT-PCR (reverse transcription followed by polymerase chain reaction), after incubation in vitro of the various cell types in the absence or in the presence of compound (Ia).
(§2) This study was carried out on normal human dermal Fibroblasts (NHDF) or normal human epidermal Keratinocytes (NHEK). The compound (Ia) is tested at 10^−5M in an aqueous solution with 0.1% dimethylsulfoxide.
(§3) The cells are cultured at the concentration of 10,000 cells per well of 96-well plates, in the presence of standard culture medium according to the cell type.
(§4) The compound (Ia) is then added at the concentration (3 ppm), for 24 hours.
(§5) The supernatant is eliminated and the cells are taken up in a specific buffer for the extraction of the messenger RNA (mRNA). The mRNA is purified and reverse transcribed in the presence of a commercial reverse transcriptase.
(§6) The complementary DNA (cDNA) obtained is quantified by RT-PCR, by means of suitable primers. The rate of expression of the mRNA is normalised with 5 reference genes.
(§7) The cells used for this example are normal human keratinocytes (NHEK).

IL8 = experiment: Gene expression of IL8 by quantitative RT-PCR in NHEK; format: cell-based, human; conditions: (Ia) 3 ppm (10^−5M), 24 hours
Procedure: as §1, §2, §3, §4, §5, §6, §7

Sirtuin-6 = experiment: Protein expression of Sirtuin-6 by immunofluorescence in NHDF; format: cell-based, human; conditions: (Ia) 10 ppm, 24 hours
Procedure: The cells used for this example are normal human Fibroblasts (NHDF).
In this example, the expression of Sirtuin-6 is measured at the protein level by the technique of immunofluorescence, after in vitro incubation of the cells in the absence or in the presence of compound (Ia) at a concentration of 10 ppm in an aqueous solution with 0.1% dimethylsulfoxide (DMSO).
The cells are cultured at the concentration of 5000 cells per well of 96-well plates, in the presence of standard culture medium for NHDF.
The contact with the compound (Ia) is carried out for 24 hours.
TGFβ is used as a positive control at the concentration of 10 ng/ml in an aqueous solution. A non-treated control is also carried out.
The supernatant is eliminated and the cells are prepared for the fluorescent marking. The cells are fixed in the presence of 3.7% formaldehyde, then permeabilised in a buffer containing 1% Triton®, finally the cells are rinsed and incubated in the presence of an anti-SIRT6 antibody (Abcam) for 2 hours. After washing, the cells are incubated in the presence of the secondary antibody (Alexa GAR488, Invitrogen) for 1 h. After washing, the cells are incubated in the presence of DAPI for 10 min, then rinsed once again.
The fluorescence is then quantified using an automated microscope (ArrayScan® (Cellomics®)).

**Q.** Which “Average fluorescence intensity of the MMP1 marking (AU)” value (MMP1; CTL UVA 165.2, CTL without stress 141.6) does the source give for `Cc1ncc(CO)c(CNC(=O)/C=C/c2ccc(O)c(O)c2)c1O` [Compound (Ia)] here?
**A.** 146.2 AU

**Q.** And the “Cells positive for MMP1 based on 100%” value (MMP1; relative to CTL without stress, CTL UVA +16.7%)?
**A.** +3.2%

**Q.** What about the “percentage of nuclei positive for marking with γ-H2AX, compared with controls” value [1] of the same compound?
**A.** clearly reduced with respect to the irradiated control sample

**Q.** And the “Reduction of the gene expression compared to the basal level based on 100% (MMP-9)” value (MMP-9)?
**A.** −75%

**Q.** And the “Reduction of the gene expression compared to the basal level based on 100% (IL8)” value (IL8)?
**A.** −75%

**Q.** What about the “Protein expression of the Sirtuin-6 compared to the basal level, based on 100%” value (Sirtuin-6) of the same compound?
**A.** 113.69%

— patent US10918891B2, “Cosmetic treatment method for the skin” (SYNTIVIA, priority 2016, dated 2021)
